The source of these data is patent publication US6372297B1, “Wood preservative oxathiazines” (Uniroyal Chemical Company, Inc., priority 1993, dated 2002).

Usually MIC stands for the smallest concentration in the dilution series that meets the test's criterion for growth inhibition.

≈ marks a conversion by molar mass, not a printed value. Where two headings read alike, the source gives them in different places. Where only a bound is given, the exact number is not on record here.

For experiment [1], the system named is blue-stain fungi and molds. Briefly: Activity against blue-stain fungi and molds in a stick test (threshold concentrations). To be noted: beech sticks, 22° C., 90% relative humidity; for Threshold concentration (ppm), A. niger, score 0 / Threshold concentration (ppm), Aureobasidium, score 0 / Threshold concentration (ppm), Sclerophoma, score 0 / Threshold concentration (ppm), Trichoderma, score 0: minimum concentration to obtain score 0; for Threshold concentration (ppm), A. niger, score 1-2 / Threshold concentration (ppm), Aureobasidium, score 1-2 / Threshold concentration (ppm), Sclerophoma, score 1-2 / Threshold concentration (ppm), Trichoderma, score 1-2: minimum concentration to obtain score 1-2. The procedure:
Representative compounds of this invention were dissolved in 50% ethanol. Each compound was then diluted serially using 50% ethanol. […] After three (3) hours, the solutions containing the test compounds were poured off and the treated sticks were allowed to dry in a sterile laminar air flow. Each treated stick was then placed in a Petri dish which had been previously seeded with inoculum. Two drops of a test fungal or spore suspension were pipetted onto the upper surface of each treated stick. The Petri dishes containing the treated sticks were incubated at 22° C. and 90% relative humidity. The treated sticks were evaluated after there was sufficient growth of fungus on control sticks (i.e., untreated sticks) incubated in the same manner. The following score system was used: 0: Stick free of fungal/mold growth 1: Traces of fungal growth on the stick 2: Slight growth (5 to 25% of the surface covered with fungal growth) 3: Moderate growth (25 to 50% covered with fungal growth) 4. Vigorous to maximum fungal growth (more than 50% growth) […]

In experiment [2] the test system is molds and blue-stain fungi. Briefly: In vitro activity against molds and blue-stain fungi, poison plate assay (MIC). It is filed as cell-based. To be noted: malt extract agar, complete inhibition. The protocol:
The effect of the representative compounds on the growth of certain molds and blue-strain fungi were determined using a poison plate assay according to the following procedure: The solutions of the representative compounds prepared above were further diluted with sterile water to desired concentrations and poured into Petri dishes. Malt extract agar medium was then added aseptically to the Petri dishes and to Petri dishes containing no compound (controls). The Petri dishes were then shaken to provide a uniform distribution of the agar medium. Each Petri dish containing compound and each control Petri dish, was then inoculated with a fungus and incubated for a period of time sufficient to permit complete growth of the fungus in the respective control Petri dish. The Petri dishes containing compound were then examined to determine the amount of inhibition of fungi for each concentration of compound tested.

Take `CC1CS(=O)(=O)C(c2cccs2)=NO1` (stereo not drawn) [Compound 51, 5,6-dihydro-6-methyl-3-(2-thienyl)-1,4,2-oxathiazine-4,4, dioxide]: in experiment [1], the “Threshold concentration (ppm), A. niger, score 0” value is recorded as 500 ppm; the “Threshold concentration (ppm), A. niger, score 1-2” value was 250-500 ppm; the “Threshold concentration (ppm), Aureobasidium, score 0” value is recorded as over 1000 ppm; the “Threshold concentration (ppm), Aureobasidium, score 1-2” value is 250-500 ppm. For the same compound, in experiment [1], the “Threshold concentration (ppm), Sclerophoma, score 0” value was found to be 100 ppm; the “Threshold concentration (ppm), Sclerophoma, score 1-2” value is on record as 50-100 ppm; the “Threshold concentration (ppm), Trichoderma, score 0” value was found to be 1000 ppm; the “Threshold concentration (ppm), Trichoderma, score 1-2” value is 500-1000 ppm.

With `CCOC(=O)c1ccc(C2=NOCC[S+]2[O-])s1` (stereo not drawn) [Compound 54], in experiment [1], the “Threshold concentration (ppm), A. niger, score 0” value turned out to be 500 ppm; the “Threshold concentration (ppm), A. niger, score 1-2” value is under 250 ppm; the “Threshold concentration (ppm), Aureobasidium, score 0” value is on record as 500 ppm; the “Threshold concentration (ppm), Aureobasidium, score 1-2” value is on record as 250-500 ppm. Moreover, in experiment [1], the “Threshold concentration (ppm), Sclerophoma, score 0” value stood at 100 ppm; the “Threshold concentration (ppm), Sclerophoma, score 1-2” value is recorded as under 50 ppm; the “Threshold concentration (ppm), Trichoderma, score 0” value stood at 5000 ppm; the “Threshold concentration (ppm), Trichoderma, score 1-2” value is 500-1000 ppm.

As to `N#Cc1ccc(C2=NOCC[S+]2[O-])s1` (stereo not drawn) [Compound 57], in experiment [1], the “Threshold concentration (ppm), A. niger, score 0” value came out at 500 ppm; the “Threshold concentration (ppm), A. niger, score 1-2” value is on record as under 250 ppm; the “Threshold concentration (ppm), Aureobasidium, score 0” value is recorded as over 1000 ppm; the “Threshold concentration (ppm), Aureobasidium, score 1-2” value was 250-500 ppm. Also, in experiment [1], the “Threshold concentration (ppm), Sclerophoma, score 0” value came out at 100 ppm; the “Threshold concentration (ppm), Sclerophoma, score 1-2” value is listed as under 50 ppm; the “Threshold concentration (ppm), Trichoderma, score 0” value is on record as 1000 ppm; the “Threshold concentration (ppm), Trichoderma, score 1-2” value is listed as 500-1000 ppm. Besides, the “MIC (ppm) against A. amstelodami” value in experiment [2] (A. amstelodami) is 10 ppm. The “MIC (ppm) against A. niger” value in experiment [2] (A. niger) came to 10 ppm. Further, the “MIC (ppm) against A. pullulans” value in experiment [2] (A. pullulans) is over 25 ppm. Also, the “MIC (ppm) against A. versicolor” value in experiment [2] (A. versicolor) came to 10 ppm. In experiment [2] (C. cladosporioides), the “MIC (ppm) against C. cladosporioides” value was determined as 25 ppm. Also, the “MIC (ppm) against C. pilifera” value in experiment [2] (C. pilifera) is on record as 10 ppm. In experiment [2] (F. solani), the “MIC (ppm) against F. solani” value is 25 ppm. The “MIC (ppm) against G. candidum” value in experiment [2] (G. candidum) is given as 25 ppm. In addition, the “MIC (ppm) against P. purpurogenum” value in experiment [2] (P. purpurogenum) came out at 10 ppm. Moreover, the “MIC (ppm) against P. variotii” value in experiment [2] (P. variotii) is listed as 25 ppm. Also, the “MIC (ppm) against P. violacea” value in experiment [2] (P. violacea) is recorded as 25 ppm. Also, in experiment [2] (S. atra), the “MIC (ppm) against S. atra” value is 10 ppm. For the same compound, in experiment [2] (S. entoxylina), the “MIC (ppm) against S. entoxylina” value is 10 ppm. Further, the “MIC (ppm) against T. viride” value in experiment [2] (T. viride) is listed as over 25 ppm. Also, in experiment [2] (U. atrum), the “MIC (ppm) against U. atrum” value was 25 ppm.

On to `N#Cc1ccc(C2=NOCCS2(=O)=O)s1` [Compound 58], for which, in experiment [1], the “Threshold concentration (ppm), A. niger, score 0” value is on record as 500 ppm; the “Threshold concentration (ppm), A. niger, score 1-2” value is on record as under 250 ppm; the “Threshold concentration (ppm), Aureobasidium, score 0” value is listed as over 1000 ppm; the “Threshold concentration (ppm), Aureobasidium, score 1-2” value is given as 500-1000 ppm. In addition, in experiment [1], the “Threshold concentration (ppm), Sclerophoma, score 0” value came out at 100 ppm; the “Threshold concentration (ppm), Sclerophoma, score 1-2” value is given as under 50 ppm; the “Threshold concentration (ppm), Trichoderma, score 0” value was 5000 ppm; the “Threshold concentration (ppm), Trichoderma, score 1-2” value is recorded as 1000-2500 ppm. In experiment [2] (A. amstelodami), the “MIC (ppm) against A. amstelodami” value was 5 ppm. Besides, the “MIC (ppm) against A. niger” value in experiment [2] (A. niger) is recorded as 5 ppm. Further, the “MIC (ppm) against A. pullulans” value in experiment [2] (A. pullulans) was 25 ppm. Besides, in experiment [2] (A. versicolor), the “MIC (ppm) against A. versicolor” value is 5 ppm. In addition, the “MIC (ppm) against C. cladosporioides” value in experiment [2] (C. cladosporioides) was determined as 10 ppm. The “MIC (ppm) against C. pilifera” value in experiment [2] (C. pilifera) came out at 5 ppm. Further, the “MIC (ppm) against F. solani” value in experiment [2] (F. solani) was determined as 10 ppm. Also, the “MIC (ppm) against G. candidum” value in experiment [2] (G. candidum) was found to be 25 ppm. Further, in experiment [2] (P. purpurogenum), the “MIC (ppm) against P. purpurogenum” value turned out to be 10 ppm. The “MIC (ppm) against P. variotii” value in experiment [2] (P. variotii) is recorded as 25 ppm. In addition, the “MIC (ppm) against P. violacea” value in experiment [2] (P. violacea) is 25 ppm. Further, the “MIC (ppm) against S. atra” value in experiment [2] (S. atra) came out at 5 ppm. The “MIC (ppm) against S. entoxylina” value in experiment [2] (S. entoxylina) was 5 ppm. For the same compound, the “MIC (ppm) against T. viride” value in experiment [2] (T. viride) turned out to be 25 ppm. Also, in experiment [2] (U. atrum), the “MIC (ppm) against U. atrum” value is 10 ppm.

For the compound `[O-][S+]1CCON=C1c1nc2ccccc2o1` (stereo not drawn) [Compound 81], in experiment [1], the “Threshold concentration (ppm), A. niger, score 0” value turned out to be 500 ppm; the “Threshold concentration (ppm), A. niger, score 1-2” value is 250-500 ppm; the “Threshold concentration (ppm), Aureobasidium, score 0” value was over 1000 ppm; the “Threshold concentration (ppm), Aureobasidium, score 1-2” value is 250-500 ppm. In addition, in experiment [1], the “Threshold concentration (ppm), Sclerophoma, score 0” value is listed as 250 ppm; the “Threshold concentration (ppm), Sclerophoma, score 1-2” value is under 50 ppm; the “Threshold concentration (ppm), Trichoderma, score 0” value is reported as 2500 ppm; the “Threshold concentration (ppm), Trichoderma, score 1-2” value was 500-1000 ppm.

Turning to `O=S1(=O)CCON=C1c1nc2ccccc2s1` [Compound 83, 5,6-dihydro-3-(2-benzothiazolyl)-1,4,2-oxathiazine 4,4-dioxide], the minimum inhibitory concentration (MIC) was over 25 µg/mL in experiment [2] (A. amstelodami, read-out: MIC (ppm) against A. amstelodami); over 25 µg/mL in experiment [2] (Aspergillus niger, A. niger, read-out: MIC (ppm) against A. niger); 25 µg/mL (≈ 93.2 µM) in experiment [2] (Aspergillus versicolor, A. versicolor, read-out: MIC (ppm) against A. versicolor); over 25 µg/mL in experiment [2] (Aureobasidium pullulans, A. pullulans, read-out: MIC (ppm) against A. pullulans); 10 µg/mL (≈ 37.3 µM) in experiment [2] (C. pilifera, read-out: MIC (ppm) against C. pilifera); over 25 µg/mL in experiment [2] (Cladosporium cladosporioides, C. cladosporioides, read-out: MIC (ppm) against C. cladosporioides). Moreover, the MIC in experiment [2] (Fusarium solani, F. solani, read-out: MIC (ppm) against F. solani) is over 25 µg/mL; in experiment [2] (Geotrichum candidum, G. candidum, read-out: MIC (ppm) against G. candidum) it was over 25 µg/mL; in experiment [2] (P. purpurogenum, read-out: MIC (ppm) against P. purpurogenum) it was over 25 µg/mL; in experiment [2] (P. violacea, read-out: MIC (ppm) against P. violacea) it was over 25 µg/mL; in experiment [2] (Paecilomyces variotii, P. variotii, read-out: MIC (ppm) against P. variotii), over 25 µg/mL; in experiment [2] (S. atra, read-out: MIC (ppm) against S. atra), 5 µg/mL (≈ 18.6 µM). Also, the minimum inhibitory concentration (MIC) was 10 µg/mL (≈ 37.3 µM) in experiment [2] (S. entoxylina, read-out: MIC (ppm) against S. entoxylina); over 25 µg/mL in experiment [2] (Trichoderma viride, T. viride, read-out: MIC (ppm) against T. viride); over 25 µg/mL in experiment [2] (U. atrum, read-out: MIC (ppm) against U. atrum).

As to `Cc1ccc2oc(C3=NOCC[S+]3[O-])nc2c1` (stereo not drawn) [Compound 89], in experiment [1], the “Threshold concentration (ppm), A. niger, score 0” value worked out at 500 ppm; the “Threshold concentration (ppm), A. niger, score 1-2” value is recorded as 250-500 ppm; the “Threshold concentration (ppm), Aureobasidium, score 0” value is recorded as over 1000 ppm; the “Threshold concentration (ppm), Aureobasidium, score 1-2” value is 100-250 ppm. Also, in experiment [1], the “Threshold concentration (ppm), Sclerophoma, score 0” value was 250 ppm; the “Threshold concentration (ppm), Sclerophoma, score 1-2” value is given as under 50 ppm; the “Threshold concentration (ppm), Trichoderma, score 0” value was 2500 ppm; the “Threshold concentration (ppm), Trichoderma, score 1-2” value is 1000-2500 ppm.
